Source: patent US20130243741A1, “RENILLA/GAUSSIA TRANSFECTED CELLS AS A LIGHT SOURCE FOR IN-SITU PHOTODYNAMIC THERAPY OF CANCER” (KANSAS STATE UNIVERSITY RESEARCH FOUNDATION, priority 2010, published 2013)

Key:
[1] = tested on: 4T1luc2 breast cancer tumors; assay: Deep-tissue PDT treatment of metastatic 4T1 breast cancer in mice; format: in vivo, BALB C mice; settings: DFO 300 mg/kg i.p.; p-value: 0.65
Method: In this Example, PDT using in-situ generation of light was used to treat metastatic breast cancer in BALB C mice. ALA was used as the only photosensitizer/prodrug, and DFO was used as the iron chelator. The mice were divided into three treatment groups as follows. On Day 0, the mice were inoculated with 4T1luc2 breast cancer cells (100,000/mouse, i.v.). On Day 3, 25 million NSCs were plated as described above for transfection. On Day 4, the cells were transfected with Glue. On Day 5, IVIS imaging with D-luciferin was carried out in the morning to determine tumor size and stratification of the mice. In the afternoon, the mice in Groups 2 and 3 were injected with the transfected cells (1 million/mouse). On Day 7, DFO was administered i.p. (300 mg/kg), as described above. On Day 8, the photosensitizing agent, ALA, was injected i.p. (100 mg/kg). Four hours later, cyclodextrin-complexed coelenterazine was administered i.v. (100 μg) into the tail vein of each mouse. The ALA/coelenterazine procedure was repeated on Day 9, and then on Day 10. The control groups were injected with PBS.

Redox potentials of RuC2 = format: physicochemical
[2] = tested on: B16F10 mouse melanoma cells; assay: LED/PDT irradiation experiment with MTT cell proliferation readout; format: cell-based; settings: no irradiation, RuC2 at 8×10^−5 M
Method: LED-irradiation experiments employing RL5-B12120 Superbright LED's, (Qmax=470 nm, light output 0.0114±0.0008 W) and a light-attenuation system consisting of a series of parallel optical filters was performed. After trypsinization, B16F10 mouse melanoma cells were counted using a hemacytometer and the trypan blue exclusion method, and plated in tissue culture plates (TPP brand, Midwest Scientific). Four hours post-plating, RuC2, TCPP, or a 1:1 mixture of RuC2 and TCPP was added to the plates, with the 1:1 mixture containing each agent at half their respective concentrations to permit comparisons at the same molar concentrations of PDT-agents. The cells were then stored in the dark for 24 hours. Next, the cells were irradiated with high or low intensity of LED light for 45 min. Twenty-four hours post-radiation, MTT cell proliferation reagent (thiazolyl blue) was added to the cells, which were then incubated four hours. Next, SDS-solubilization buffer was added and the cells were incubated for 12 hours. The plates were then read using a plate reader (Spectramax 190) at 550 nm and 690 nm (background establishment).

[3] = cited from earlier work

Compound: CC(=O)N(O)CCCCCNC(=O)CCC(=O)N(O)CCCCCNC(=O)CCC(=O)N(O)CCCCCN [DFO, deferoxamine]
- effect of the iron chelator on tumor growth [1]: mild effect in suppressing tumor growth

Compound: O=C(O)CC[n+]1ccc(-c2ccnc(-c3cc(-c4cc[n+](CCC(=O)O)cc4)ccn3)c2)cc1.O=C(O)CC[n+]1ccc(-c2ccnc(-c3cc(-c4cc[n+](CCC(=O)O)cc4)ccn3)c2)cc1.O=C(O)CC[n+]1ccc(-c2ccnc(-c3cc(-c4cc[n+](CCC(=O)O)cc4)ccn3)c2)cc1.[Cl-].[Cl-].[Cl-].[Cl-].[Cl-].[Cl-].[Cl-].[Cl-].[Ru+2] [RuC2, Tris(N,N′″-bis(2-carboxyethyl)-4,4′:2,2″:4″,4′″-Quaterpyridine-N′N″-dium-N′,N′″) ruthenium(II)octachloride]
- E0 Ru^2+/1+ (Redox potentials of RuC2): −0.477 V
- photochemical reduction potential E0*Ru^2+/1+ (Redox potentials of RuC2): 1.670 V
- oxidation potential E0 Ru^3+/2 (Redox potentials of RuC2; vs. SHE, pH=7.0): 1.537 V
- growth inhibition in the absence of irradiation [2]: approx. 20%

Compound: O=c1c(Cc2ccc(O)cc2)nc2c(Cc3ccccc3)[nH]c(-c3ccc(O)cc3)cn1-2 [coelenterazine, 2-(4-hydroxybenzyl)-6-(4-hydroxyphenyl)-8-(phenylmethyl)imidazo[1,2-a]pyrazin-3(7H)-one]
- long-term stability ([3]; commercially available material): not long-term stable
- water solubility ([3]; native form): low

Compound: O=C(O)c1ccc(-c2c3nc(c(-c4ccc(C(=O)O)cc4)c4ccc([nH]4)c(-c4ccc(C(=O)O)cc4)c4nc(c(-c5ccc(C(=O)O)cc5)c5ccc2[nH]5)C=C4)C=C3)cc1 [TCPP, tetrakis-4-carboxyphenyl-porphyrin]
- growth inhibition in the absence of irradiation [2]: zero
